ChEMBL document CHEMBL4152362, “Discovery of DS-6930, a potent selective PPARγ modulator. Part II: Lead optimization” (Bioorg Med Chem, 2018)
pEC50: −log10 of the molar value. Values after ≈ are worked out from the molar mass of the structure shown. Active and inactive are the calls of the source. No cut-off for these calls is given here.

Tests used:
[1] = AUC (0 to 24 hrs) in F344/DuCrlCrlj rat at 50 mg/kg, po via gavage measured on day 28 post dose; assay type: ADME, organism-based; set-up: time < 24 hr, dose 50 mg/kg, route oral; conditions: in vivo
Rattus norvegicus [2] = assay: Toxicity in F344/DuCrlCrlj rat assessed as effect on ovary weight at 50 mg/kg, po administered via gavage once daily for 28 days; assay type: organism-based; conditions: in vivo, 672 h
Rattus norvegicus [3] = assay: Toxicity in F344/DuCrlCrlj rat assessed as death at 50 mg/kg, po administered via gavage once daily for 28 days; assay type: organism-based; conditions: in vivo, 672 h
Rattus norvegicus [4] = assay: Toxicity in F344/DuCrlCrlj rat assessed as clinical abnormality at 50 mg/kg, po administered via gavage once daily for 28 days; assay type: organism-based; conditions: in vivo, 672 h
in vivo = conditions: F344/DuCrlCrlj, rat, po, 50 mg/kg
Description: Tmax in F344/DuCrlCrlj rat at 50 mg/kg, po via gavage measured on day 28 post dose

[5] = Drug uptake in F344/DuCrlCrlj rat plasma administered via oral gavage measured on day 28 post dose; assay type: ADME
[6] = biological target: T1, Peroxisome proliferator-activated receptor gamma (Homo sapiens) (UniProt P37231); assay: Agonist activity at recombinant human GAL4-TAD fused PPARgamma LBD assessed as induction of GAL4-DBD fused NCoA3 co-factor recruitment after 24 to 48 hrs by fluorescence assay
T1 sequence (whole entry): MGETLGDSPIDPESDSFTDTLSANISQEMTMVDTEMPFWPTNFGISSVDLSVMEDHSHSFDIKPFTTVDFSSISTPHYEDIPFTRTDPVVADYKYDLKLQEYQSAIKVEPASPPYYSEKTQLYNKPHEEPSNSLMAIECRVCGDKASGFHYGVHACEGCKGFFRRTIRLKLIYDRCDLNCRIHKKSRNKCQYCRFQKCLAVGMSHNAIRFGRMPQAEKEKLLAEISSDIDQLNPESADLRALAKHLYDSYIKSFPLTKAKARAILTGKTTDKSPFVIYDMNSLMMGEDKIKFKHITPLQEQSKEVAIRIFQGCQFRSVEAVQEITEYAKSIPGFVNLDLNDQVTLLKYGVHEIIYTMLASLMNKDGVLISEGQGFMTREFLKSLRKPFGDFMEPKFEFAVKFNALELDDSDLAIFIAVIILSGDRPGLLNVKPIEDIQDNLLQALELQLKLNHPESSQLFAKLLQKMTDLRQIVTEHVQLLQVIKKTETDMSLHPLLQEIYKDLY

Rattus norvegicus [7] = assay: Toxicity in Zucker diabetic fatty rat assessed as body weight gain at 3 mg/kg, po administered once daily for 14 days relative to control; assay type: organism-based; conditions: in vivo, 336 h
[8] = Cmax in Zucker diabetic fatty rat at 0.3 mg/kg, po administered once daily for 21 days followed by additional administration on day 22; assay type: ADME, organism-based; set-up: dose 0.3 mg/kg, route oral; conditions: in vivo
Rattus norvegicus [9] = assay: Toxicity in F344/DuCrlCrlj rat assessed as increase in heart weight at 50 mg/kg, po administered via gavage once daily for 28 days; assay type: organism-based; conditions: in vivo, 672 h
Rattus norvegicus [10] = assay: Antidiabetic activity in Zucker diabetic fatty rat assessed as reduction in plasma glucose level at 3 mg/kg, po administered once daily for 14 days measured on day 15 relative to control; assay type: functional; set-up: scale not given: the % may be the effect or the level left
Rattus norvegicus [11] = assay: Antidiabetic activity in Zucker diabetic fatty rat assessed as reduction in plasma glucose level administered orally once daily for 21 days measured on day 22; assay type: functional, organism-based
Rattus norvegicus [12] = assay: Antidiabetic activity in Zucker diabetic fatty rat assessed as reduction in plasma glucose level at 0.3 mg/kg, po administered once daily for 21 days measured on day 22 relative to control; assay type: functional; set-up: scale not given: the % may be the effect or the level left
Rattus norvegicus [13] = assay: Toxicity in F344/DuCrlCrlj rat assessed as effect on kidney weight at 50 mg/kg, po administered via gavage once daily for 28 days; assay type: organism-based; conditions: in vivo, 672 h
[14] = biological target: T1, Peroxisome proliferator-activated receptor gamma (Homo sapiens); assay: Agonist activity at recombinant human GAL4-TAD fused PPARgamma LBD assessed as induction of GAL4-DBD fused SRC1 co-factor recruitment after 24 to 48 hrs by fluorescence assay
[15] = biological target: T1, Peroxisome proliferator-activated receptor gamma (Homo sapiens); assay: Agonist activity at recombinant human GAL4-TAD fused PPARgamma LBD assessed as induction of GAL4-DBD fused CBP co-factor recruitment after 24 to 48 hrs by fluorescence assay
Rattus norvegicus [16] = assay: Toxicity in F344/DuCrlCrlj rat assessed as effect on hematocrit at 50 mg/kg, po administered via gavage once daily for 28 days; assay type: organism-based; conditions: in vivo, 672 h
[17] = biological target: T1, Peroxisome proliferator-activated receptor gamma (Homo sapiens); assay: Agonist activity at recombinant human GAL4-TAD fused PPARgamma LBD assessed as induction of GAL4-DBD fused RIP140e184b co-factor recruitment after 24 to 48 hrs by fluorescence assay
[18] = Tmax in Zucker diabetic fatty rat at 0.3 mg/kg, po administered once daily for 21 days followed by additional administration on day 22; assay type: ADME, organism-based; conditions: in vivo
[19] = AUC (0 to 24 hrs) in Zucker diabetic fatty rat at 0.3 mg/kg, po administered once daily for 21 days followed by additional administration on day 22; assay type: ADME, organism-based; set-up: dose 0.3 mg/kg, time < 24 hr, route oral; conditions: in vivo
Rattus norvegicus [20] = assay: Toxicity in F344/DuCrlCrlj rat assessed as reduction in RBC count at 50 mg/kg, po administered via gavage once daily for 28 days relative to control; assay type: organism-based; set-up: scale not given: the % may be the effect or the level left; conditions: in vivo, 672 h
[21] = Cmax in F344/DuCrlCrlj rat at 50 mg/kg, po via gavage measured on day 28 post dose; assay type: ADME, organism-based; set-up: dose 50 mg/kg, route oral; conditions: in vivo
[22] = biological target: T1, Peroxisome proliferator-activated receptor gamma (Homo sapiens); assay: Agonist activity at recombinant human GAL4-TAD fused PPARgamma LBD assessed as induction of GAL4-DBD fused TRAP220 co-factor recruitment after 24 to 48 hrs by fluorescence assay
Rattus norvegicus [23] = assay: Toxicity in F344/DuCrlCrlj rat assessed as body weight gain at 50 mg/kg, po administered via gavage once daily for 28 days relative to control; assay type: organism-based; conditions: in vivo, 672 h
Hepatocyte [24] = assay: Cytotoxicity against F344/DuCrlCrlj rat primary hepatocytes assessed as reduction in cell viability at 100 uM after 24 hrs by LDH release assay; assay type: cell-based
[25] = Half life in cynomolgus monkey at 3 mg/kg, po by LC-MS/MS; assay type: ADME, organism-based, Macaca fascicularis; conditions: in vivo
[26] = Apparent permeability of the compound after 4 hrs by PAMPA; assay type: ADME
Hepatocyte [27] = assay: Cytotoxicity against F344/DuCrlCrlj rat primary hepatocytes assessed as reduction in mitochondrial enzyme activity at 10 to 100 uM after 24 hrs by WST8 assay; assay type: cell-based
[28] = Clearance in cynomolgus monkey at 1 mg/kg, iv by LC-MS/MS; assay type: ADME, organism-based, Macaca fascicularis; conditions: in vivo
[29] = AUClast in cynomolgus monkey at 3 mg/kg, po by LC-MS/MS; assay type: ADME, organism-based, Macaca fascicularis; set-up: dose 3 mg/kg, time 0 - last, route oral; conditions: in vivo
[30] = Metabolic stability in human liver microsomes after 0.5 hrs; assay type: ADME, microsome; conditions: read-out: Stability
[31] = Tmax in cynomolgus monkey at 3 mg/kg, po by LC-MS/MS; assay type: ADME, organism-based, Macaca fascicularis; conditions: in vivo
[32] = Volume of distribution at steady state in cynomolgus monkey at 1 mg/kg, iv by LC-MS/MS; assay type: ADME, organism-based, Macaca fascicularis; conditions: in vivo, read-out: Vdss
[33] = Aqueous thermodynamic solubility of the compound in pH 6.8 solution up to 4 hrs by HPLC-UV analysis; assay type: physicochemical; conditions: read-out: Therm_solubility
[34] = Cmax in cynomolgus monkey at 3 mg/kg, po by LC-MS/MS; assay type: ADME, organism-based, Macaca fascicularis; set-up: dose 3 mg/kg, route oral; conditions: in vivo
[35] = Oral bioavailability in cynomolgus monkey at 3 mg/kg by LC-MS/MS; assay type: ADME, organism-based, Macaca fascicularis; conditions: in vivo
[36] = biological target: T2, Peroxisome proliferator-activated receptor alpha (Homo sapiens, UniProt Q07869); assay: Agonist activity at recombinant human GAL4-DBD fused PPARalpha LBD expressed in COS7 cells after 24 hrs by luciferase reporter gene assay; assay type: cell-based
T2 sequence (Q07869 whole entry): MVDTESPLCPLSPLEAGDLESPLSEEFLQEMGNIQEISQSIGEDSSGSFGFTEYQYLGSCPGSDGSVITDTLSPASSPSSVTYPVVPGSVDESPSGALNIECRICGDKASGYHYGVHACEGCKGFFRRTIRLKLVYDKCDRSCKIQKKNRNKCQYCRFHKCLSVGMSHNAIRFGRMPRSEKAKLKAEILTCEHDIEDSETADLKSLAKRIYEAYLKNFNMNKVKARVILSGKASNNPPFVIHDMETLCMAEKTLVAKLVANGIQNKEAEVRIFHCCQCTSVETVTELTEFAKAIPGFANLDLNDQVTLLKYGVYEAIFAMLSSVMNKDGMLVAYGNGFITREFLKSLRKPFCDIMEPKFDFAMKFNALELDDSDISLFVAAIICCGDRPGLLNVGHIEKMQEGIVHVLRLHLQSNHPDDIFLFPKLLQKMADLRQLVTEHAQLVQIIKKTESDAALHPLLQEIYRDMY

[37] = 1-octanol/PBS distribution co-efficient, log D of the compound at […] at pH 7.4 after 30 mins by HPLC-MS/MS method; assay type: physicochemical
Hepatocyte [38] = assay: Cytotoxicity against F344/DuCrlCrlj rat primary hepatocytes assessed as reduction in cell viability at 10 to 100 uM after 24 hrs by LDH release assay; assay type: cell-based
[39] = Tmax in F344/DuCrlCrlj rat at 1000 mg/kg, po via gavage measured on day 28 post dose; assay type: ADME, organism-based; conditions: in vivo
[40] = AUC (0 to 24 hrs) in F344/DuCrlCrlj rat at 100 mg/kg, po via gavage measured on day 28 post dose; assay type: ADME, organism-based; set-up: dose 100 mg/kg, time < 24 hr, route oral; conditions: in vivo
[41] = Cmax in F344/DuCrlCrlj rat at 300 mg/kg, po via gavage measured on day 28 post dose; assay type: ADME, organism-based; set-up: dose 300 mg/kg, route oral; conditions: in vivo
[42] = AUC (0 to 24 hrs) in F344/DuCrlCrlj rat at 300 mg/kg, po via gavage measured on day 28 post dose; assay type: ADME, organism-based; set-up: time < 24 hr, dose 300 mg/kg, route oral; conditions: in vivo
[43] = Cmax in F344/DuCrlCrlj rat at 1000 mg/kg, po via gavage measured on day 28 post dose; assay type: ADME, organism-based; set-up: dose 1000 mg/kg, route oral; conditions: in vivo
[44] = Tmax in F344/DuCrlCrlj rat at 100 mg/kg, po via gavage measured on day 28 post dose; assay type: ADME, organism-based; conditions: in vivo
[45] = Tmax in F344/DuCrlCrlj rat at 300 mg/kg, po via gavage measured on day 28 post dose; assay type: ADME, organism-based; conditions: in vivo
[46] = AUC (0 to 24 hrs) in F344/DuCrlCrlj rat at 1000 mg/kg, po via gavage measured on day 28 post dose; assay type: ADME, organism-based; set-up: time < 24 hr, dose 1000 mg/kg, route oral; conditions: in vivo
[47] = Cmax in F344/DuCrlCrlj rat at 100 mg/kg, po via gavage measured on day 28 post dose; assay type: ADME, organism-based; set-up: dose 100 mg/kg, route oral; conditions: in vivo

CN(CCOc1ccc(CC2SC(=O)NC2=O)cc1)c1ccccn1 (centres undefined) [ROSIGLITAZONE]
AUC at 24 h [1]: 525 µg·h/mL | Activity (Rattus norvegicus [2]): Toxic | Activity (Rattus norvegicus [3]): Non-Toxic | Activity (Rattus norvegicus [4]): Non-Toxic | Tmax (in vivo): 1 h | Drug uptake [5]: Dose-dependent effect | Activity [6]: Active | Activity (Rattus norvegicus [7]): 12.6% | Cmax [8]: 1040 ng/mL | Activity (Rattus norvegicus [9]): 18% | Activity (Rattus norvegicus [10]): 40.3% | Activity (Rattus norvegicus [11]): Dose-dependent effect | Activity (Rattus norvegicus [12]): 50% | Activity (Rattus norvegicus [13]): Toxic | Activity [14]: Active | Activity [15]: Active | Activity (Rattus norvegicus [16]): Non-Toxic | Activity [17]: Active | Tmax [18]: 1.6 h | AUC at 24 h [19]: 6550 ng·h/mL | Activity (Rattus norvegicus [20]): 13% | Cmax [21]: 67.6 µg/mL | Activity [22]: Active | Activity (Rattus norvegicus [23]): 10%

Cc1cnc(Oc2ccc3nc(COc4cccc(C(=O)O)c4)n(C)c3c2)c(F)c1
Activity (Hepatocyte [24]): Toxic | half-life [25]: 2990 min | Papp at 4 h [26]: 5.8 ×10⁻⁶ cm/s | Activity (Hepatocyte [27]): Non-Toxic | clearance [28]: 3.07 mL/min/kg | AUC(0-t) [29]: 1470 ng·h/mL | remaining at 0.5 h [30]: 100% | Tmax [31]: 4 h | Vd [32]: 0.88 L/kg | solubility thermodynamic at 4 h [33]: 9.2 µg/mL (≈ 22.6 µM) | Cmax [34]: 100 ng/mL | bioavailability [35]: 8.9% | pEC50 [36]: < 5.00 | logD at 0.5 h [37]: 1.1 | Activity (Hepatocyte [38]): Non-Toxic

Cc1cnc(Oc2ccc3nc(COc4cccc(C(=O)O)c4)n(C)c3c2)c(C)c1.Cl
Drug uptake [5]: Dose-dependent effect | Tmax [39]: 1 h | AUC at 24 h [40]: 399 µg·h/mL | Cmax [41]: 206 µg/mL | AUC at 24 h [42]: 933 µg·h/mL | Cmax [43]: 273 µg/mL | Tmax [44]: 30 min | Tmax [45]: 30 min | AUC at 24 h [46]: 1080 µg·h/mL | Cmax [47]: 92.8 µg/mL
